Measured values published in article PMC12236194, “Precision dendritic-supramolecular glycan assemblies for probing multivalent lectin interactions” (Chemical Science, 2025).

How the values were obtained:
[1] = target: monomeric Griffithsin (GRFT); parameters: method as in PMID 17340634; conditions: monovalent sugar; cited from earlier work
[2] = Dynamic light scattering (DLS) hydrodynamic diameter in solution; type: physicochemical; conditions: H2O, 1 mM, 25 °C
Protocol: S3. Dynamic Light Scattering (DLS)
All measurements were conducted using a 384-well plate with individual sample volumes of 30
µL. Solutions of man-2, man-3, and man-6 were freshly prepared in H2O (1 mM). For the glycoassembly analyses, two solution conditions were used: samples prepared in H2O (5 μM), and samples prepared in mixed DMSO/H2O solutions (85% v/v, 50 μM). The concentration of each glycoassembly solution was determined by absorption spectroscopy according to ε values (M-1cm-1) reported in Section S2.2. All sample solutions were filtered through a 0.22 μm PTFE syringe filter before being added to a well. The sample plate was then centrifuged using a Fisherbrand Mini Plate Spinner Centrifuge at 2500 rpm for 20 sec, and measurements were immediately collected at 25 °C. Before data collection, images were taken of each well to confirm the absence of bubbles or visible dust particles that affect the DLS measurements. The hydrodynamic diameter (Dh) values represent the mean ± standard deviation (σ) of the hydrodynamic size averaged for three (1 sec) scans and all data were analyzed using DYNAMICS […]
S3.1.1. Measurement in H2O (1 mM)
Figure S53. DLS measurements of man -2 (H O, 1 mM).
S3.2.1. Measurement in H2O (1 mM)
Figure S54. DLS measurements of man-3 (H2O, 1 mM). […]

| Structure (SMILES) | Kd [1] [µM] | Hydrodynamic diameter (Dh) [2] [nm] |
| --- | --- | --- |
| OC[C@H]1O[C@H](O)[C@@H](O)[C@@H](O)[C@@H]1O [α-D-mannose] | ~100 |  |
| O=Cc1ccc(OCc2cc(OCc3cn(CCOCCO[C@H]4O[C@H](CO)[C@@H](O)[C@H](O)[C@@H]4O)nn3)cc(OCc3cn(CCOCCO[C@H]4O[C@H](CO)[C@@H](O)[C@H](O)[C@@H]4O)nn3)c2)cn1 [man-2] |  | 1.6 ± 0.6 |
| O=Cc1ccc(OCc2cc(OCc3cc(OCc4cn(CCOCCO[C@H]5O[C@H](CO)[C@@H](O)[C@H](O)[C@@H]5O)nn4)c(OCc4cn(CCOCCO[C@H]5O[C@H](CO)[C@@H](O)[C@H](O)[C@@H]5O)nn4)c(OCc4cn(CCOCCO[C@H]5O[C@H](CO)[C@@H](O)[C@H](O)[C@@H]5O)nn4)c3)cc(OCc3cc(OCc4cn(CCOCCO[C@H]5O[C@H](CO)[C@@H](O)[C@H](O)[C@@H]5O)nn4)c(OCc4cn(CCOCCO[C@H]5O[C@H](CO)[C@@H](O)[C@H](O)[C@@H]5O)nn4)c(OCc4cn(CCOCCO[C@H]5O[C@H](CO)[C@@H](O)[C@H](O)[C@@H]5O)nn4)c3)c2)cn1 [man-6] |  | 2.4 ± 0.2 |
| O=Cc1ccc(OCc2cc(OCc3cn(CCOCCO[C@H]4O[C@H](CO)[C@@H](O)[C@H](O)[C@@H]4O)nn3)c(OCc3cn(CCOCCO[C@H]4O[C@H](CO)[C@@H](O)[C@H](O)[C@@H]4O)nn3)c(OCc3cn(CCOCCO[C@H]4O[C@H](CO)[C@@H](O)[C@H](O)[C@@H]4O)nn3)c2)cn1 [man-3] |  | 1.8 ± 0.1 |
